Molecular target: T1, recombinant human CDK1/Cyclin B complex (Homo sapiens, UniProt P06493)
T1 construct: made in house; host or cells: High Five insect cells (baculovirus) for CDK1/GST-cyclin B; M15 E. coli for the Rb substrate
Test: CDK1/Cyclin B kinase assay (FlashPlate or HTRF)
Type: biochemical
Details: Rb protein substrate, Ki=IC50/(1+[S]/Km)
Description: To determine inhibition of CDK1 activity, either FlashPlate™ (NEN™-Life Science Products) assay or HTRF assay was performed. Both types of kinase assays were carried out using recombinant human CDK1/Cyclin B complex. GST-cyclinB (GST-cycB) and CDK1 cDNA clones in baculovirus vectors were provided by Dr. W. Harper at the Baylor College of Medicine, Houston, Tex. Proteins were co-expressed in High Five™ insect cells and the complex was purified on glutathione Sepharose resin (Pharmacia, Piscataway, N.J.) as previously described (Harper, J. W. et al. Cell 1993, 75, 805-816). A 6×-Histidine tagged truncated form of retinoblastoma (Rb) protein (amino acid 386-928) was used as the substrate for the CDK1/Cyclin B assay (the expression plasmid was provided by Dr. Veronica Sullivan, Department of Molecular Virology, Roche Research Centre, Welwyn Garden City, United Kingdom). The Rb protein is a natural substrate for phosphorylation by CDK1 (see Herwig and Strauss Eur. J. Biochem. Vol. 246 (1997) pp. 581-601 and the references cited therein). The expression of the 62Kd protein was under the control of an IPTG inducible promoter in an M15 E. coli strain. Cells were lysed by sonication and purification was carried out by binding lysates at pH 8.0 to a Ni-chelated agarose column pretreated with 1 mM imidazole. The resin was then washed several times with incrementally decreasing pH buffers to pH 6.0, and eluted with 500 mM imidazole. Eluted protein was dialysed against 20 mM HEPES pH 7.5, 30% glycerol, 200 mM NaCl, and 1 mM DTT. Purified Rb fusion protein stocks were quantitated for protein concentration, aliquoted, and stored at −70° C.
For the FlashPlate kinase assay, 96-well FlashPlates were coated with Rb protein at 10 μg/ml, using 100 μl per well. Plates were incubated at 4° C. overnight or at room temperature for 3 hours on a shaker. To control for nonspecific phosphorylation, one row of wells was coated with 100 μl/well coating buffer (20 mM HEPES, 0.2 M NaCl). Plates were then washed twice with wash buffer (0.01% Tween 20 in phosphate-buffered saline). Compounds to be tested (“test compounds”) were added to the wells at 5× final concentration. Reactions were initiated by immediate addition of 40 μl reaction mix (25 mM HEPES, 20 mM MgCl2, 0.002% Tween 20, 2 mM DTT, 1 μM ATP, 4 nM 33P-ATP) and a sufficient amount of enzyme to give counts that were at least 10-fold above background. Plates were incubated at room temperature on a shaker for 30 minutes. Plates were washed four times with the wash buffer, sealed, and counted on the TopCount scintillation counter (Packard Instrument Co., Downers Grove, Ill.]. The percent inhibition of Rb phosphorylation, which is a measure of the inhibition of CDK activity, was determined according to the following formula:
[formula] where “test compound” refers to the average counts per minute of the test duplicates, “nonspecific” refers to the average counts per minute when no CDK1/Cyclin B, etc., was added, and “total” refers to the average counts per minute when no compound was added. […] The value of the inhibitor constant Ki is calculated by the following: Ki=IC50/(1+[S]/Km), where [S] is the ATP concentration and Km is Michaelis constant.
The Homogeneous Time Resolved Fluorescence (HTRF) kinase assay was carried out in 96-well polypropylene plates (BD Biosciences, Bedford, Mass.). […]

T1 sequence (P06493 whole entry): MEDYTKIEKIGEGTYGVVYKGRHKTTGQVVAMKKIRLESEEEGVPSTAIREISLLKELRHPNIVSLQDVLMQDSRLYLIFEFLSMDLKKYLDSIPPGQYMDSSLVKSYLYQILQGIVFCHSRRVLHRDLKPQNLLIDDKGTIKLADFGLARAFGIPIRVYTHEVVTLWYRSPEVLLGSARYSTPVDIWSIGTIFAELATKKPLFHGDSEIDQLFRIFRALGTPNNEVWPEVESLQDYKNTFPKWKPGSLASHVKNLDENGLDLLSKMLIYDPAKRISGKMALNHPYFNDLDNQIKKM
T1 sequence (P14635 whole entry partner): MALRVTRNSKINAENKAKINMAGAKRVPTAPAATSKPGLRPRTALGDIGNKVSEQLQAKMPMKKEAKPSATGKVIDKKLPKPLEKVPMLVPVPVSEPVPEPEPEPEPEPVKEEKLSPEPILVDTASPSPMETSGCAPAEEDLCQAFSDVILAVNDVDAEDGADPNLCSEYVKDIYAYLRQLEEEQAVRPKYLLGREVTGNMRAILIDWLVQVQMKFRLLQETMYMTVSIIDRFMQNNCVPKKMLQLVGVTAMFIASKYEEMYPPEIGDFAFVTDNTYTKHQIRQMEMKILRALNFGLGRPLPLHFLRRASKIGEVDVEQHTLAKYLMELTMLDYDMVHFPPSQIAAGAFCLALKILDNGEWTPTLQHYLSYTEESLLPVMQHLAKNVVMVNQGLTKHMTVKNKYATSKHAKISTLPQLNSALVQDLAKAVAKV

Row | SMILES | Ki [nM]
1 | NC1=NC(=O)/C(=C/c2ccc3ncccc3n2)S1 [Example 4, 2-Amino-5-[1,5]naphthyridin-2-ylmethylene-thiazol-4-one] | 4670
2 | CC(=O)NC1=NC(=O)/C(=C/c2ccc3ncccc3n2)N1 [Example 16, N-(5-[1,5]Naphthyridin-2-ylmethylene-4-oxo-4,5-dihydro-1H-imidazol-2-yl)-acetamide] | 1180
3 | O=C1N=C(NCc2ccc(C(F)(F)F)cc2C(F)(F)F)N/C1=C\c1ccc2ncccc2n1 [Example 20, 2-(2,4-Bis-trifluoromethyl-benzylamino)-5-[1,5]naphthyridin-2-ylmethylene-1,5-dihydro-imidazol-4-one] | 735

Molecules with a lower Ki, results first:

Row | Ki [nM] | SMILES
4 | 279 | O=C1N=C(NCc2ccc(F)c(Cl)c2)S/C1=C\c1ccc2ncccc2n1 [Example 8, 2-(3-Chloro-4-fluoro-benzylamino)-5-[1,5]naphthyridin-2-ylmethylene-thiazol-4-one]
5 | 31.7 | Cc1cccc(Cl)c1CNC1=NC(=O)/C(=C/c2ccc3ncccc3n2)S1 [Example 12, 2-(2-Chloro-6-methyl-benzylamino)-5-[1,5]naphthyridin-2-ylmethylene-thiazol-4-one]
